Measured values: patent publication US20060088545A1, “Use of inhibitors of the protease of the human immunodeficiency virus (hiv) to block cell migration and/or invasion, tissue infiltration and oedema for the therary of diseases associated therewith” (priority 2001, published 2006)

System: angiogenesis induced by bFGF or VEGF in the chorioallantoic membrane
Protocol: CAM assays were performed with 1 mm^3 sterilized gelatin sponges (Gelfoam; Upjohn Co, Kalamazoo, Mich.) adsorbed with bFGF or VEGF (1 μg or 100 ng, respectively) in 5 μl of PBS, and with buffer, HIV-PI (10 μM) or taxol (250 nM) (Bristol-Myers Squibb Co., Princeton, N.J.) as described (Ribatti et al, Int. J. Dev. Biol., 1996). CAM were examined daily until day 12 under an Olympus SZX9 stereomicroscope. Images (1024×1024 pixels) were captured at a distance of 2 mm from the edge of the sponge using a cooled digital CCD Hamamatsu ORCA camera (Hamamatsu Photonics Italia, Arese, Italy). Vessel number was quantified with the ImageProPlus 4.0 imaging software (Media Cybernetics, Silver Spring, Md.) in 3 randomly selected areas per egg ([…]).
Results are expressed as the average number of vessels/mm^2±SD from the indicated number of CAM per experimental condition.

`CC(=O)O[C@H]1C(=O)[C@@]2(C)[C@H]([C@H](OC(=O)c3ccccc3)[C@]3(O)C[C@H](OC(=O)[C@H](O)[C@@H](NC(=O)c4ccccc4)c4ccccc4)C(C)=C1C3(C)C)[C@]1(OC(C)=O)CO[C@@H]1C[C@@H]2O` [Taxol, taxol] was tested, and the “Average vessel (number/mm^2 ± SD)” value (bFGF 1 μg, HIV-PI 10 μM, taxol 250 nM) was 7.71 ± 1.63 number/mm^2, the “basal CAM vascularization” value (drug administered alone) was “did not affect” and the “toxicity in CAM” value (in vivo) was “not associated with toxicity”.
